Assay results as given in patent US20240002398A1, “COMPLEX, AND USE THEREOF” (RIKEN, priority 2020, published 2024).
One block for each molecule: values may come before it.

Assays:
[1] = system: A549 xenograft tumors; experiment: A549 tumor bearing mice xenograft model, intratumoral administration (Example 9); format: in vivo; conditions: intratumoral 10 μL, 4 times on days 0, 4, 7 and 11; FIG. 20
[2] = system: A549 xenograft tumors; experiment: A549 tumor bearing mice xenograft model, intratumoral administration (Example 8); conditions: for tumor growth (tumor size): intratumoral 10 μL, 4 times on days 0, 4, 7 and 11, FIGS. 17 and 18; for survival rate: intratumoral, at and after the fourth administration, Kaplan Meier, FIG. 19
Experimental: The prepared mice were randomized, divided into three groups, and treated with the prodrugs and controls. Group 1 was intratumorally injected with 10 μL of compound 9 produced in Production Example 5 as a control (n=10). Group 2 was intratumorally injected with 10 μL of doxorubicin (n=10).
Administrations were conducted 4 times in total on days 0, 4, 7, and 11 with the same doses. The tumor volumes of the mice were recorded every day based on an equation: V=W^2×L/2, where W and L represented the minor length and major length of the tumor, respectively. When the tumor reached 2,000 mm^3, the mice were sacrificed, and the survival rates were calculated using the Kaplan Meier method.

[3] = system: HeLa S3 (human cervical cancer cells); experiment: Fluorescence release, cell-based assay, time-dependent; conditions: HeLa S3, 2 μM or 20 μM, real-time 30 minutes, FIGS. 6 and 7
Experimental: (§1) Fluorescence intensity was normalized for each cell line by the number of 10,000 cells. Results are shown in FIG. 6 (2 μM) and FIG. 7 (20 μM).

[4] = system: MCF10A (normal human mammary cells); experiment: as above; conditions: 2 μM or 20 μM, real-time 30 minutes, FIGS. 6 and 7
Experimental: as §1

[5] = system: A549 (human lung adenocarcinoma cells); experiment: as above; conditions: A549, 2 μM or 20 μM, real-time 30 minutes, FIGS. 6 and 7
Experimental: as §1

[6] = Fluorescence release, HPLC analysis of mixture with acrolein; format: physicochemical; conditions: 20 μM in DMSO, acrolein 1.0 eq, FIG. 9
Experimental: (§2) To a solution of coumarin-ABC (compound 7) (2×10^−5 mmol, 1.0 eq) in DMSO (1 mL, [compound 7]=20 μM) was added glutathione (GSH) (2×10^−5 mmol, 1.0 eq) or acrolein (2×10^−5 mmol, 1.0 eq). The reaction liquid was stirred and the reaction mixture was subjected to HPLC analysis at different time intervals (30 minutes, 1 hour, 2 hours, 4 hours, and 12 hours). Conditions of reversed-phase HPLC were as follows: Column, Cosmosil 5C18-AR300 (manufactured by Nacalai Tesque, Inc.) 4.6×250 mm; Mobile phase A, 0.1% TFA in H2O; Mobile phase B, 0.1% TFA in CH3CN; Gradient elution, 0-4 min at 65% B, 4-14 min at 65-95% B, 14-20 min at 95% B; Flow rate at 1 mL/min; Fluorescence detection at 360/450 nm; Amount per injection 6 μL. Results are shown in FIG. 8 (GSH) and FIG. 9 (acrolein).

[7] = Fluorescence release, HPLC analysis of mixture with glutathione; format: physicochemical; conditions: 20 μM in DMSO, GSH 1.0 eq, FIG. 8
Experimental: as §2

[8] = system: HeLa S3 (human cervical cancer cells); experiment: Fluorescence release, cell-based assay, concentration-dependent; conditions: FIG. 5
Description: (§3) Fluorescence intensity was normalized for each cell line by the number of 10,000 cells.

[9] = system: MCF10A (normal human mammary cells); experiment: as above; conditions: 2-20 μM, FIG. 3
Description: as §3

[10] = system: A549 (human lung adenocarcinoma cells); experiment: as above; conditions: FIG. 4
Description: as §3

[11] = Fluorescence spectra in water (0.2% DMSO); format: physicochemical; conditions: 2 μM in water (0.2% DMSO), FIG. 1
Description: The results are shown in FIG. 1 (dashed line: compound 7, solid line: control compound).

[12] = system: A549 xenograft tumors; experiment: A549 tumor bearing mice xenograft model, intratumoral administration (Example 6); conditions: 12 times in consecutive days, mitomycin C 1.8 mg/kg, MMC-ABC 3.1 mg/kg, FIGS. 13 and 15
Experimental: For all intratumoral injections and tumor measurements, mice were anesthetized with 2% isoflurane in oxygen at a 2.5-3.0 L/min flow rate.
A549 cells were obtained from stock lines kept in liquid nitrogen. These cells were cultured in Dulbeccos's modified eagle's medium (DMEM) (manufactured by FUJIFILM Wako Pure Chemical Corporation) supplemented with 10% fetal bovine serum (FBS) (manufactured by BioWest) and 1% penicillin-streptomycin (manufactured by Gibco). The cells were then incubated at 37° C. in a 5% CO2 humidified atmosphere.
A549 xenograft tumors were established in 6-week-old female nude mice BALB/cAJc1-nu/nu by subcutaneous injection of a suspension of 2.5-6.0×10^6 cells in 100 μL of cold 50% matrigel in unnourished DMEM into the right and left shoulders, and tumor growth was monitored. The mice were kept in controlled temperature, salinity, and aeration room with sufficient food and water for 12 hours day and 12 hours night. […]
The administrations were repeated 12 times in consecutive days with the same doses. The tumor volume and body weight of the mice were recorded every day based on an equation: V=W^2×L/2, where W and L represented the minor length and major length of the tumor, respectively. When the tumor reached 2,000 mm^3, the mice were sacrificed, and the survival rates were calculated using the Kaplan Meier method. […]

[13] = system: HeLa S3; experiment: ATP assay (cytotoxicity assay), DOX-ABC and DOX; conditions: HeLa S3, 0.05-50 μM, 48 hours at 37° C., FIG. 16
Experimental: (§4) Three cell lines (MCF10A, A549, and HeLa S3) were seeded on a 96-well plate (2×10^4 cells/well) and left to attach for 24 hours at 37° C. Each of the cells was then used for two different conditions as follows:
(§5) (Condition 1) The cells were treated with 100 μL of DOX-ABC (compound 7) solutions [0.05 μM, 0.1 μM, 0.5 μM, 1 μM, 5 μM, 10 μM, 50 μM in the culture medium (1% DMSO)] and incubated for 48 hours at 37° C. under 5% of CO2.
(§6) (Condition 2) Incubation was carried out in a manner similar to that of condition 1 with use of doxorubicin (DOX) solutions.
(§7) After the incubation, 100 μL of ATP lite 1 step reagent was added to the cells, and the fluorescence intensity was measured using a spectrofluorometer (SpectraMax iD3, manufactured by Molecular Devices).

[14] = system: A549; experiment: ATP assay (cytotoxicity assay), DOX-ABC and DOX; conditions: A549, 0.05-50 μM, 48 hours at 37° C., FIG. 16
Experimental: as §4, §5, §6, §7

[15] = system: MCF10A; experiment: ATP assay (cytotoxicity assay), DOX-ABC and DOX; conditions: 0.05-50 μM, 48 hours at 37° C., FIG. 16
Experimental: as §4, §5, §6, §7

SMILES: COc1ccc(CC(NC(=O)OCc2cc(C(C)C)c(N=[N+]=[N-])c(C(C)C)c2)C(=O)NC2C(O)[C@H](n3cnc4c(N(C)C)ncnc43)O[C@@H]2CO)cc1 (some centres unmarked) [PUR-ABC]
tumor growth [1]: effective with respect to the tumor growth

SMILES: Cc1cc(C(C)C)c(N=[N+]=[N-])c(C(C)C)c1 [compound 9, 2-azido-1,3-diisopropyl-5-methylbenzene]
tumor growth (tumor size) [2]: larger tumor size

reaction with acrolein [6]: rapidly reacted with each other
reaction with glutathione (GSH) [7]: did not react with each other
state of the compound in the mixture with GSH ([7]; left for 12 hours): did not change
fluorescence emission [11]: did not emit fluorescence
SMILES: Cc1cc(=O)oc2cc(NC(=O)OCc3cc(C(C)C)c(N=[N+]=[N-])c(C(C)C)c3)ccc12 [coumarin-ABC]
release of fluorescence [3]: notably observed depending on the time
release of fluorescence [4]: only slightly observed
release of fluorescence [5]: notably observed depending on the time
release of fluorescence ([8]; HeLa S3, 2-20 μM, 60 minutes at room temperature, no NAc-Cys (conditions 1 and 3)): notably observed
release of fluorescence ([8]; HeLa S3, pre-treated with 1 mM N-acetyl cysteine 2 hours (condition 2), 2-20 μM, 60 minutes): low
release of fluorescence ([9]; 60 minutes at room temperature, no NAc-Cys (conditions 1 and 3)): hardly observed
release of fluorescence ([9]; pre-treated with 1 mM N-acetyl cysteine 2 hours (condition 2), 60 minutes): hardly observed
release of fluorescence ([10]; A549, 2-20 μM, 60 minutes at room temperature, no NAc-Cys (conditions 1 and 3)): notably observed
release of fluorescence ([10]; A549, pre-treated with 1 mM N-acetyl cysteine 2 hours (condition 2), 2-20 μM, 60 minutes): low

SMILES: CO[C@@]12[C@H](COC(N)=O)C3=C(C(=O)C(C)=C(N)C3=O)N1C[C@@H]1N[C@@H]12 [mitomycin C]
side effect [12]: inflammation on the whole body

SMILES: COc1cccc2c1C(=O)c1c(O)c3c(c(O)c1C2=O)C[C@@](O)(C(=O)CO)C[C@@H]3O[C@H]1C[C@H](N)[C@H](O)[C@H](C)O1 [doxorubicin, reference compound]
cytotoxicity (cell viability) [13]: nonspecifically exhibited cytotoxicity toward normal cells and cancer cells
cytotoxicity (cell viability) [14]: nonspecifically exhibited cytotoxicity toward normal cells and cancer cells
cytotoxicity (cell viability) [15]: nonspecifically exhibited cytotoxicity toward normal cells and cancer cells
tumor growth (tumor size) [2]: effective with respect to the tumor growth
survival rate [2]: suddenly decreased

SMILES: COc1cccc2c1C(=O)c1c(O)c3c(c(O)c1C2=O)C[C@@](O)(C(=O)CO)C[C@@H]3O[C@H]1C[C@H](NC(=O)OCc2cc(C(C)C)c(N=[N+]=[N-])c(C(C)C)c2)[C@H](O)[C@H](C)O1 [DOX-ABC]
cytotoxicity (cell viability) [13]: released free DOX specifically in cancer cells
cytotoxicity (cell viability) [14]: released free DOX specifically in cancer cells
cytotoxicity (cell viability) [15]: released free DOX specifically in cancer cells
tumor growth (tumor size) [2]: effective with respect to the tumor growth
survival rate [2]: 100%
